Experimental data from US10752626B2, “Iso-citrate dehydrogenase (IDH) inhibitor” (SHANGHAI METON PHARMACEUTICAL CO., LTD, priority 2016, dated 2020).

Target: IDH1 R132C (Homo sapiens (Human), UniProt O75874, R132C)
Assay: Biochemical assay for inhibition of mutant IDH1 R132C
Conditions: tested in triplet
Description: The present disclosure provides a biochemical assay method for detecting the IDH inhibition and selectivity of the compounds by detecting IDH enzyme activity directly.
Wild-type IDH enzyme could convert NADP^+ to NADPH when it catalyzes the α-KG producing reaction. Mutant IDH enzyme could convert NADPH to NADP^+ when it catalyzes the D-2-HG producing reaction. So the activity of wild-type and mutant IDH1/2 could be measured by monitoring NADPH level change: in the reaction catalyzed by wild-type IDH1/2, the newly generated NADPH is utilized instantly by coupled diaphorase-resazurin reaction to generate resorufin which is fluorescent (at Excitation 544 nm, Emission 590 nm) and thus NADPH is monitored indirectly; while in the reaction catalyzed by mutant IDH1/2, NADPH is directly monitored as it is fluorescent (at Excitation 340 nm, Emission 460 nm). By monitoring the change of NADPH level in the reaction, the enzyme activity could be determined rapidly and efficiently, IC50 of a compound could also be assayed.
The test compounds were prepared into 50 mM stock solutions in DMSO and stored at −20° C. Each test compound stock was further diluted to obtain a 100× stock solution at a concentration of 200 μM, 100 μM, 50 μM, 25 μM, 12.5 jμM, 6.25 μM and 3.125 μM, respectively, for the final use on the day of test.
Inhibition of Mutant IDHJ (R132H or R132C):
Solution A was prepared by combining 1 M Tris-HCl pH7.5 (300 μL), 5 M NaCl (450 μL), 1 M MgCl2 (150 μL), 1 M DTT (15 μL), 20 mg/mL BSA (37.5 μL), 20 mM NADPH (20 μL), and 0.5 mM α-KG (40 μL), followed by adding deionized water to a final volume of 15 mL.
Reaction buffer was prepared by combining 1 M Tris-HCl pH 7.5 (200 μL), 5 M NaCl (300 μL), 1 M MgCl2 (100 μL), 1 M DTT (10 μL) and 20 mg/mL BSA (25 μL), followed by adding deionized water to a final volume of 10 mL.
Solution B was prepared by combining the reaction buffer (5 mL) and […] IDH1-R132H (5.21 μL) or 107 μM IDH1-R132C (4.67 μL).
148 μL Solution A was added into each sample well of a 96-well plate P1, and then 2 μL of the test compound solution at each concentration and 2 μL of DMSO (negative control/blank) were added into individual sample well respectively. 50 μL of Solution B was added into each of the sample wells having test compounds and one sample well having DMSO only, and 50 μL of reaction buffer was added into another sample well having DMSO only, respectively. P1 was put into BioTek Synergy H4 Microplate reader (BioTek Instruments Inc., Winooski, U.S.), and the program was set as follows: 37° C., shake plate 5 seconds, run kinetic mode, total detection time 20 min, detection intervals 40 seconds, detection mode fluorescence (at Excitation 340 nm, Emission 460 nm). The data were exported, the relative enzyme activity and the half-maximal inhibitory concentration (IC50) for the test compound were calculated. Relative enzyme activity was calculated as the absolute value of the slope of the Emission 460 reads of each well plotted against time (which represents the conversion rate of ca-KG to 2-HG through IDH1 modulated utilization of NADPH). The Dose-response curve was drawn and the IC50 was calculated via fitting. The IDH inhibition and selectivity of each test compound can be evaluated according to the effect of the compounds on the IDH enzyme activity.
The IDH inhibition activity of the compounds were assessed according to Test 5 of the Biological evaluation section. The test for mutant IDH1 R132H/R132C inhibition of each compound was carried out in triplet. For IDH1 R132H, the enzyme activity of exemplary Compounds 16, 21, 22, 23, 24 and 31 is plotted as a function of logarithm of the concentration of the compound in FIGS. 8A-8C, 9A-9C, 10A-10C, 11A-11C, 12A-12C and 13A-13C, respectively. […]

IDH1 R132C, sequence (O75874 whole entry R132C): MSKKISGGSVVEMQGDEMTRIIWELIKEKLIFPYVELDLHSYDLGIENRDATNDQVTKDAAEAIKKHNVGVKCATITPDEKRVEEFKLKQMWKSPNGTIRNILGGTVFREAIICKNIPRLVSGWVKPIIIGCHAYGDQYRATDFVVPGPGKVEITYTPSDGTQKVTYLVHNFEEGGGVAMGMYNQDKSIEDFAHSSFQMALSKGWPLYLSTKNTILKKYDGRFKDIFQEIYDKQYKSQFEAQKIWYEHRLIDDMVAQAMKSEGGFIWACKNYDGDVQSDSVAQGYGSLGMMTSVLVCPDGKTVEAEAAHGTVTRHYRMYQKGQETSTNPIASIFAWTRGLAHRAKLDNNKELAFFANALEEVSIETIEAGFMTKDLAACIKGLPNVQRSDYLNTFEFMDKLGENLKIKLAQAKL

Row | SMILES | IC50
1 | CCN1Cc2c(ccnc2N[C@@H](C)c2ccc(Oc3ccc(C)cc3)cc2)C1=O [Compound 16, (S)-2-ethyl-4-(1-(4-(p-tolyloxy)phenyl)ethylamino)-2,3-dihydro-1H-pyrrolo [3,4-c]pyridin-1-one] | < 1500 nM
2 | CCN1Cc2c(ccnc2N[C@@H](C)c2ccc(Oc3ccccc3)c(F)c2)C1=O [Compound 23, (S)-2-ethyl-4-((1-(3-fluoro-4-phenoxyphenyl)ethyl)amino)-2,3-dihydro-1H-pyrrolo[3,4-c]pyridin-1-one] | < 1500 nM
